According to PubChem BioAssay (NCI):
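Five concentrations, 48 hours, 96-well plates. TGI is the concentration that stops growth completely.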

Columns and labels:
Assay in all cases: growth of human tumour cells (NCI), 48 h
[1] = tested on: OVCAR-5 ovarian
[2] = tested on: T-47D breast
[3] = tested on: NCI/ADR-RES ovarian
[4] = tested on: A549 NSCLC
[5] = tested on: SW-620 colon
[6] = tested on: SK-MEL-28 melanoma
[7] = tested on: LOX IMVI melanoma
[8] = tested on: NCI-H23 lung
[9] = tested on: RXF 393 renal
[10] = tested on: SK-MEL-5 melanoma
[11] = tested on: IGROV1 ovarian
[12] = tested on: M14 melanoma
[13] = tested on: MDA-MB-435
[14] = tested on: MDA-N
[15] = tested on: NCI-H226 lung
[16] = tested on: SK-MEL-2 melanoma
[17] = tested on: HCC-2998 colon
[18] = tested on: HT29 colon
[19] = tested on: SK-OV-3 ovarian
[20] = tested on: OVCAR-3 ovarian
[21] = tested on: A498 renal
[22] = tested on: COLO 205 colon
[23] = tested on: MCF7 breast
[24] = tested on: HOP-62 NSCLC
[25] = tested on: HS 578T breast
[26] = tested on: MDA-MB-231 breast
[27] = tested on: HCT-15 colon
[28] = tested on: RPMI-8226 leukemia
[29] = tested on: TK-10 renal
[30] = tested on: UACC-62 melanoma
[31] = tested on: ACHN renal
[32] = tested on: DU-145 prostate
[33] = tested on: HOP-92 NSCLC
[34] = tested on: KM12 colon
[35] = tested on: SNB-75 CNS
[36] = tested on: SF-268 CNS
[37] = tested on: CAKI-1 renal
[38] = tested on: MOLT-4 leukemia
[39] = tested on: PC-3 prostate
[40] = tested on: SF-295 CNS
[41] = tested on: SNB-19 CNS
[42] = tested on: OVCAR-8 ovarian
[43] = tested on: EKVX NSCLC
[44] = tested on: SN12C renal
[45] = tested on: UACC-257 melanoma
[46] = tested on: MALME-3M melanoma
[47] = tested on: SF-539 CNS
[48] = tested on: 786-0 renal
[49] = tested on: NCI-H460 lung
[50] = tested on: HCT-116 colon
[51] = tested on: OVCAR-4 ovarian
[52] = tested on: UO-31 renal
[53] = tested on: NCI-H522 lung
[54] = tested on: U251 CNS

Measured: TGI

Fc1sc2c(c1F)C1CCC2C1 (centres undefined)
87.1 µM: [28]
69.6 µM: [25]
86.8 µM: [38]
> 100 µM: all other assays above
